From PMC6900016, “Synthesis of Indomorphan Pseudo‐Natural Product Inhibitors of Glucose Transporters GLUT‐1 and ‐3” (Angewandte Chemie (International Ed. in English), 2019)

Assays:
Assay in all cases: cells
Design in all cases: Cell growth inhibition, sulforhodamine B total protein staining
MHHES1 = conditions: Homo sapiens, MHH-ES-1; 72 h growth; read-out: Cell growth inhibition IC50/µM
Procedure: (§1) Cell panel profiling A panel of 94 cell lines was exposed to Glupin for 72 h to assess the influence on cell growth (Oncolead, Germany). Cell growth was determined using sulforhodamine B assay. Measurements were performed using a total protein staining protocol. Briefly, after treatement cells were fixed addition of 10% TCA (for adherent growing cells) or 50% TCA (for semi-adherent growing cells or cells growing in suspension). After an incubation at 4°C for 1 h, plates were washed twice with 400 μl of deionized water and dried. Cells were then stained with 100 μl of 0.04% wt/v sulforhodamine B. Plates were incubated at room temperature for at least 30 min and washed six times with 1% acetic acid to remove unbound stain. […] This effect was much stronger at a physiological glucose concentration (5 mM; Figure 5 b,c). […] IC50 values lower than 300 nM were obtained for more than 20 cell lines, whereas 24 cell lines were not affected by the compound, among them the peripheral blood mononuclear control cells (PBMCs). Sensitivity to Glupin was detected across various tissue types (Table S6).

SF268 = conditions: Homo sapiens, SF-268; 72 h growth; read-out: Cell growth inhibition IC50/µM
Procedure: as §1

CALU6 = conditions: Homo sapiens, Calu-6; 72 h growth; read-out: Cell growth inhibition IC50/µM
Procedure: as §1

PBMC = conditions: PBMC; 72 h growth; read-out: Cell growth inhibition IC50/µM
Procedure: as §1

OVCAR3 = conditions: Homo sapiens, OVCAR-3; 72 h growth; read-out: Cell growth inhibition IC50/µM
Procedure: as §1

SKOV3 = conditions: Homo sapiens, SK-OV-3; 72 h growth; read-out: Cell growth inhibition IC50/µM
Procedure: as §1

A549 = conditions: Homo sapiens, A549; 72 h growth; read-out: Cell growth inhibition IC50/µM
Procedure: as §1

DU145 = conditions: Homo sapiens, DU-145; 72 h growth; read-out: Cell growth inhibition IC50/µM
Procedure: as §1

HS729 = conditions: 72 h growth; read-out: Cell growth inhibition IC50/µM
Procedure: as §1

A204 = conditions: Homo sapiens, A204; 72 h growth; read-out: Cell growth inhibition IC50/µM
Procedure: as §1

OVCAR4 = conditions: Homo sapiens, OVCAR-4; 72 h growth; read-out: Cell growth inhibition IC50/µM
Procedure: as §1

SKNAS = conditions: Homo sapiens, SK-N-AS; 72 h growth; read-out: Cell growth inhibition IC50/µM
Procedure: as §1

SAOS2 = conditions: Homo sapiens, SAOS-2; 72 h growth; read-out: Cell growth inhibition IC50/µM
Procedure: as §1

22RV1 = conditions: Homo sapiens, 22Rv1; 72 h growth; read-out: Cell growth inhibition IC50/µM
Procedure: as §1

A2780 = conditions: Homo sapiens, A2780; 72 h growth; read-out: Cell growth inhibition IC50/µM
Procedure: as §1

CAKI1 = conditions: Homo sapiens, CAKI-1; 72 h growth; read-out: Cell growth inhibition IC50/µM
Procedure: as §1

JIMT1 = conditions: Homo sapiens, JIMT-1; 72 h growth; read-out: Cell growth inhibition IC50/µM
Procedure: as §1

NCIH82 = conditions: Homo sapiens, NCI-H82; 72 h growth; read-out: Cell growth inhibition IC50/µM
Procedure: as §1

BXPC3 = conditions: Homo sapiens, BXPC-3; 72 h growth; read-out: Cell growth inhibition IC50/µM
Procedure: as §1

SW620 = conditions: Homo sapiens, SW-620; 72 h growth; read-out: Cell growth inhibition IC50/µM
Procedure: as §1

COLO678 = conditions: Homo sapiens, COLO-678; 72 h growth; read-out: Cell growth inhibition IC50/µM
Procedure: as §1

THP1 = conditions: Homo sapiens, THP-1; 72 h growth; read-out: Cell growth inhibition IC50/µM
Procedure: as §1

WSUNHL = conditions: Homo sapiens, WSU-NHL; 72 h growth; read-out: Cell growth inhibition IC50/µM
Procedure: as §1

IC50 (CALU6): 0.538 µM | IC50 (OVCAR3): > 30 µM | IC50 (SKOV3): 6.07 µM | IC50 (A549): 0.32 µM | IC50 (DU145): 0.317 µM | IC50 (OVCAR4): 1.41 µM | IC50 (SKNAS): 0.175 µM | IC50 (22RV1): 5.57 µM | IC50 (A2780): 0.248 µM | IC50 (BXPC3): 0.591 µM | IC50 (SW620): > 30 µM | IC50 (COLO678): > 30 µM | IC50 (THP1): > 30 µM
Compound: CCOC(=O)Cn1c2c(c3ccccc31)C[C@@H]1C[C@H]2C(OC)CN1C(=O)c1cccnc1SC (single isomer, unassigned; (+)) [(+)-5a, Glupin]
IC50 (MHHES1): 1.49 µM | IC50 (SF268): 0.37 µM | IC50 (PBMC): > 30 µM | IC50 (HS729): > 30 µM | IC50 (A204): 0.562 µM | IC50 (SAOS2): > 30 µM | IC50 (CAKI1): 0.805 µM | IC50 (JIMT1): 0.113 µM | IC50 (NCIH82): 1.17 µM | IC50 (WSUNHL): 0.062 µM
